{
  "source": "patent US7629317B2",
  "about": "“Control of growth and repair of gastro-intestinal tissues by gastrokines and inhibitors” (The University of Chicago, priority 2001, dated 2009)",
  "key": {"[1]": {"test_system": "AGS cells", "test": "Growth of gastric epithelial AGS cells (cell count four days later)", "format": "cell-based, human", "description": "(§1) To characterize the capacity of gastric and intestinal cells to respond to AMP-18, AGS gastric adenocarcinoma cells, HAE human gastric antrum mucosa primary cultures transformed with SV40 large T antigen, rat diploid small intestinal epithelial cells of the IEC-6 (FIG. 15) and IEC-18 lines, NCI N-87 gastric carcinoma cells, and SK-GT5 gastroesophageal adenocarcinoma cells were studied; human WI-38 fibroblasts and HeLa cells served as non-GI control cell lines. Mitogenesis was assayed by performing cell counts 3 to 4 days after exposing cells to the agent of interest, trypsinizing the culture to prepare single cells, and confirming this while counting them in a hemocytometer."}, "[2]": {"test_system": "IEC-18 cells", "test": "Growth of confluent cultures of IEC-18 cells (cell count)", "format": "cell-based, rat", "details": "confluent IEC-18 cultures, FIG. 13; read-out: half-maximal concentration (K1/2) for growth stimulation", "description": "Confluent cultures of IEC-18 cells were prepared. One day later, medium was aspirated and replaced with 5 ml of DMEM containing CS (0.5%) and insulin, without (control) or with mitogenic peptide 58-99 (8 μg/ml). Sister plates receiving 1 ml medium and different amounts of peptide 67-85 were incubated at 1 hr at 38° C. on a CO2 incubator, and then an additional 4 ml of medium was added to each dish. Peptide 58-99 was added to 2 of the 4-sister plates at each concentration of peptide 67-85, and the number of cells was counted. […] Stimulation of cell growth by mitogenic peptide 58-99 was completely abolished by preincubation of cells with 0.25 μg/ml of peptide 67-85. […] Values for the number of cells per culture are shown relative to multiplication of cells exposed to the vehicle during the same period.\nUrea (6 M) was employed to release proteins from the insoluble fraction solubilize rhAMP-18 containing the His6-tag (SEQ ID NO: 16), and make it available to bind to the Ni^2+-charged resin from which it was subsequently eluted with a gradient of imidazole (0 to 200 mM). The amount of eluted rhAMP-18 was measured using the BCA assay, and the appearance of a single band at the predicted size of 19-20 kD was confirmed by SDS-PAGE followed by immunoblotting. To determine if eluted rhAMP-18 renatured to assume a structure that was mitogenic, aliquots of the eluate (following removal of urea and imidazole by dialysis) were added to cultures of IEC-18 cells and the number of cells was counted 4 days later. […] AMP peptide 77-97 refers to the mature protein; same as peptide 97-117 of human precursor protein: Table 1. These observations indicate that biologically active recombinant human AMP-18 that can be utilized in diverse clinical situations is available. The mitogenic potency of rhAMP-18 is in the nanomolar range which would be expected for a native gastric cell growth factor that participates in the maintenance and repair of the stomach in vivo.\nas §1"}, "[3]": {"test_system": "hsp25, hsp72", "test": "Expression of heat shock proteins by IEC-18 cells after thermal injury (immunoblot)", "format": "cell-based, rat", "details": "42° C. 23 min, peptide 8 μg/ml; 12 and 24 hr; listed as AMP peptide", "description": "FIG. 42. Effect of AMP peptide on expression of heat shock proteins by intestinal epithelial cells after thermal injury. IEC-18 cell monolayers were subjected to non-lethal heat shock injury by exposure to 42° C. for 23 min. Immediately thereafter some cultures received AMP peptide (8 μg/ml) (P on figure); control cultures (C) received vehicle. Whole cell protein was analyzed by immunoblotting. Increased expression of hsp25 and induced hsp72 is seen 12 hr after heat shock in control cultures, but constitutive expression of hsc73 is not altered. Expression of hsp25 and 72 was increased after treatment with AMP peptide compared to vehicle at 12 and 24 hr.\nIn an effort to identify molecules that could mediate the cytoprotective effect of AMP peptide, it was asked if exposing intestinal epithelial cells to the peptide could modify induction of heat shock proteins (hsps) (Musch et al., 1996). Diploid non-transformed rat intestinal epithelial IEC-18 cells were used to study induction of hsps in response to thermal injury rather than C2 cells—which constitutively express hsp27 and hsp72 at high levels, possibly because they are transformed. (Hsp27 is found in human C2 cells, and hsp25 in rat IEC-18 cells. Hsp72 is often referred to as hsp70). The results depicted in FIG. 42 indicate that, as expected, hsc73 and hsp25 are constitutively expressed (0 hr), but hsp72 is not. […]"}, "[4]": {"test_system": "NCI N-87 cells", "test": "Growth of NCI N-87 gastric carcinoma cells", "format": "cell-based", "details": "concentration-dependent", "description": "as §1"}, "[5]": {"test_system": "mice with Pseudomonas aeruginosa-induced gut-derived sepsis", "test": "Pseudomonas aeruginosa-induced gut-derived sepsis in mice", "format": "in vivo, female Balb/c mice", "details": "15 mg/kg i.p for 4 days, s.c. for 1 day; all vehicle animals dead; listed as AMP peptide", "description": "To determine if AMP peptide could play a cytoprotective role in GDS, a study was carried out in C2 cell monolayers that were exposed to the PA-I lectin. […] Next the effect of AMP peptide was studied in the mouse model of P. aeruginosa-induced-GDS (Laughlin et al., 2000) using female Balb/c mice subjected to 30% hepatectomy, injection of a solution of living P. aeruginosa into the cecum, and food deprivation postoperatively. All 8 of the mice survived surgery."}, "[6]": {"test_system": "IEC-6 cells", "test": "Growth of intestinal epithelial IEC-6 cells (cell count)", "format": "cell-based, rat", "description": "IEC-6 cells were grown in 60-mm dishes. […] Values are means±SE for 3 cultures.\nas §1"}, "[7]": {"test_system": "Staphylococcus epidermidis", "test": "Growth of other bacteria and fungi", "format": "cell-based"}, "[8]": {"test_system": "Escherichia coli", "test": "Growth of other bacteria and fungi", "format": "cell-based"}},
  "note": "Values joined by “and” are separate entries in the source; they are usually repeats but may differ in a detail not shown here. Equal values may be shown once. “Also recorded” adds a separate entry of the source.",
  "data": [
    {"sequence": "LDALVKEKKLQGKGPGGPPPK [97–117, peptide 77-97 of the mature protein, same as 97-117 of the human precursor]", "values": [
      {"measurement": "growth stimulation together with EGF", "setting": "[1]; peptide 77-97 8 μg/ml + EGF 50 ng/ml", "result": "additive"},
      {"measurement": "growth stimulation of AGS cells (in words)", "setting": "[1]; peptide 77-97 8 μg/ml, EGF 50 ng/ml at saturating doses", "result": "stimulated growth; also recorded: mitogenic"},
      {"measurement": "EC50", "setting": "[2]", "result": "~0.3", "unit": "µM"},
      {"measurement": "expression of hsp25 and hsp72 compared to vehicle", "setting": "[3]", "result": "greater; also recorded: increased"},
      {"measurement": "growth of NCI N-87 cells", "setting": "[4]", "result": "stimulated"},
      {"measurement": "survival one day after P. aeruginosa injection into the cecum", "setting": "[5]", "result": "alive and well"},
      {"measurement": "growth stimulation of IEC-6 cells (in words)", "setting": "[6]", "result": "stimulated growth in a concentration-dependent manner"},
      {"measurement": "concentration at near-maximal growth stimulation", "setting": "[6]; FIG. 15, center panel, listed as AMP peptide", "result": "0.5 μg/ml and 0.23 μM"},
      {"measurement": "potency compared with EGF", "setting": "[6]; peptide 1 μg/ml vs EGF 50 ng/ml", "result": "more potent than EGF"},
      {"measurement": "growth of Staphylococcus epidermidis", "setting": "[7]", "result": "did not alter the growth"},
      {"measurement": "growth of Escherichia coli", "setting": "[8]", "result": "did not alter the growth"}
    ]}
  ]
}
